Experimental data as given in patent US20260169011A1, “METHODS AND COMPOSITIONS FOR PROVIDING CUSTOMIZED NUTRITIONAL SUPPLEMENTS” (Vibrant Holdings LLC, priority 2023, published 2026).
Where two headings read alike, the source gives them in different places.

Tests used:
[1] = Vibrant Absorption Factor (VAF): difference of post- and pre-supplementation nutrient values divided by ATB dosage; conditions: serum
Excerpt: (§2) Improvement in nutrition can be determined by comparing the nutrient values in serum, RBC, and WBCs post-nutritional supplementation to the nutrient values in serum, RBC, and WBCs pre-nutritional supplementation. Based on the improvement, the change in the nutrient levels can be attributed to the per milligram dosage of the supplemented nutrients. The assessed nutritional change is the “Vibrant Absorption factor (VAF (see Equation (1) below). The VAF can be used to determine the subject's utilization of the supplemented nutrients, as determined by the difference in extracellular and intracellular nutrient values before and after supplementation. Based on the subject's utility or absorption of the nutrients, the dosage amount of the nutrient needed to be supplemented or increased to effect change of the subject's nutrient values into the optimum nutrient zone can be assessed. In various embodiments, the VAF is determined by administering a pre-determined formulation, referred to herein as the Absorption Testing Blend.
(§3) Next, the ATB is administered to the individual for a predefined period at step 320a, after which nutrient levels and the genetic nutrient profile are re-evaluated, to obtain the post-supplementation biomarker values at step 330.
(§4) This includes determining the VAF based on the difference between post- and pre-supplementation biomarker values, which is divided by the ATB dosage.
(§5) The assessed change is called the VAF. The VAF is used to understand how the individual's body is utilizing these nutrients, depending on the difference in extracellular and intracellular nutrient values before and after supplementation. Based on the body's utility or absorption of the nutrients, the amount of nutrients needed to be supplemented to alter the individual's nutrient values into the optimum nutrient zone is understood. The VAF calculations help in determining the appropriate dosages of nutrients required in the ‘customized blend.’

[2] = NutriPro test: serum, RBC and WBC nutrient values before and after ATB / customized blend; assay type: in vivo, human
Excerpt: The method for providing a nutritional supplement for a subject as disclosed herein is based on a comprehensive panel that assesses intracellular and extracellular levels of at least or up to 41 nutrients. […] Blood analysis using the method disclosed herein tests for nutrient levels in serum, red blood cells (RBCs), and white blood cells (WBCs). Additional genetic testing can assess patients' predispositions toward nutrient deficiencies. Based on the blood and genetic analysis results, a subsequent supplementation diet comprising supplements and food sources can be designed and implemented. The subject can be a human subject.
(§1) In some embodiments, the detection method is mass spectrometry.
The ‘NutriPro’ test is used to assess serum (extracellular), RBC, and WBC (intracellular) nutrient values along with genetic testing for any predispositions with could be affecting nutrient values in the body. If required, additional tests such as the gut zoomer, cardiovascular health, thyroid test, kidney function test, liver function test, etc, are carried out. FIG. 1 provides a schematic diagram of the process of the NutriPro test from the individual subject to the creation of customized nutritional blends.
The ATB is given to the individual for nutritional supplementation, and blood testing for nutrients in serum, RBC, and WBC is carried out after 3 or 6 months.
The assessed change is called the VAF.
After testing, the individual takes the ATB or the customized blend for the amount of time indicated.

[3] = Extracellular (serum) nutrient levels by mass spectrometry (LC-MS, GC-MS, ICP-MS); conditions: Level: Serum, person; for Follow-up Nutrient Level: after customized blend; for Actual Nutrient Value (ANV): before customized blend
Excerpt: (§6) In some embodiments, the detection method assesses nutrients both in extracellular plasma and intracellular in RBC and WBC. In some embodiments, the detection method is mass spectroscopy-based. The extracellular and intracellular nutrient levels provide a comprehensive analysis of a subject's nutrient status, reflecting not only the intake levels but also the absorption levels into the cells.
(§7) In some aspects, the extracellular nutrient levels provide a snapshot of the status of nutrient baseline levels at a given time. It is a reflection of a person's diet over a narrow period of time. In contrast, the intracellular levels of nutrients provide information on the absorbed levels of nutrients, thus accounting for factors such as aging, lifestyle, chronic illness, medication, etc. that could interfere with absorption and can change the functional nutritional levels.
(§8) In some embodiments, the detection method is mass spectrometry. In some embodiments, the detection method is Liquid chromatography-mass spectrometry (LC-MS), Gas chromatography-mass spectrometry (GC-MS), or Inductively coupled plasma-mass-spectrometry (ICP-MS). In some embodiments, the detection method is Liquid chromatography-mass spectrometry (LC-MS). In some embodiments, the detection method is Gas chromatography-mass spectrometry (GC-MS). In some embodiments, the detection method is Inductively coupled plasma-mass-spectrometry (ICP-MS).
(§9) In some embodiments, the method provided herein evaluates nutrient levels, both in extracellular serum and inside (intracellular) red blood cells (RBC) and/or white blood cells (WBC). The extracellular nutrient levels provide a snapshot of the status of nutrient baseline levels at a given time. These extracellular nutrient levels are a reflection of a person's diet over a narrow period of time. In contrast, RBCs have a normal lifespan of 120 days, and thus intracellular assessments for nutrients in RBCs can provide information on nutrients over longer periods. Additionally, the intracellular levels of nutrients provide information on the absorbed levels of nutrients, thus accounting for factors such as, but not limited to, aging, lifestyle, chronic illness, and medication, that can interfere with absorption and can change the functional nutritional levels. Moreover, actual nutrient utilization occurs inside the cell owing to cellular metabolic processes. At times, nutrients could be present in serum, but poor cellular uptake may result in cells being devoid of these nutrients, thus giving rise to nutrient deficiencies owing to affected cellular activities. […] As a result, it is important to assess nutrients intracellularly in addition to extracellularly. Thus, the intracellular assessment provides information on cellular uptake and utilization of nutrients at the most fundamental level, enabling understanding of the root cause of nutrient deficiencies.
(§10) The subject individual fills out the health questionnaire (PHQ) which helps establishes factors such as symptoms, complications, comorbidities, and ongoing medications. The subject's blood is drawn and the extracellular serum and intracellular blood cells are tested for nutritional deficiencies via mass spectroscopy (e.g., Liquid chromatography-mass spectrometry (LC-MS), Gas chromatography-mass spectrometry (GC-MS), or Inductively coupled plasma-mass-spectrometry (ICP-MS)).

[4] = Intracellular (RBC / WBC, cellular) nutrient levels by mass spectrometry; assay type: in vivo, human; conditions: Level: Cells, person; for Follow-up Nutrient Level: after customized blend; for Actual Nutrient Value (ANV): before customized blend
Excerpt: as §1

[5] = cited from earlier work
[6] = Zone Approach: nutrient zone (Zone 1-5), target nutrient zone and follow-up zone; assay type: in vivo, human; conditions: Zone Approach, CB followed for three months; for change of nutrient level at follow-up testing / nutrient zone at follow-up testing: Example 5: person
Excerpt: The second exemplary approach includes determining nutrient zones, and thus is referred to as the “Zone Approach.” According to some embodiments, the nutrient reference range for individuals can be divided into a number of zones, each indicating a nutrient wellness level. […] In some embodiments, for a given nutrient, each zone is associated with a specific multiplication factor, which can be used to determine the appropriate dosage for the CB. A few exemplary methods following this Zone Approach are further described hereinafter. […] Based on the assessment results, the current zone for each nutrient is determined at step 420a. In some embodiments, the genetic predispositions and cellular levels may influence the determination of the overall zone for a nutrient. […] This adjustment accounts for the impact of genetic polymorphisms and suboptimal cellular levels, each reducing the nutrient's zone by one or more zones. Therefore, this approach takes one or more of cellular and serum nutrient levels, along with their nutrient genetic profile into consideration to determine a given nutrient's overall zone. In the next, the Target Nutrient Zone (TNZ) to which the individual's each nutrient level is to be optimized is determined at step 430. […] In some embodiments, the determined TNZ is used to determine the multiplication factor used to adjust the starting dosage at step 440a, resulting in the CB dosage for each nutrient. In various embodiments, the multiplication factor is a fixed constant value, previously determined for a nutrient when moving from a first zone to a second zone. […] At step 450a, the CB with the determined nutrient dosages is administered to the individual for a predefined period. In some embodiments, a follow-up test is periodically conducted at step 460, to monitor the progress towards the target nutrient levels during the predefined period, for example, to check whether a target zone is reached or not for a given nutrient. In some embodiments, based on the results from the follow-up tests, it is further determined whether the dosage of the CB for a nutrient requires adjustment. If the adjustment is necessary, appropriate modification is made to the CB, for example, by increasing the TNZ to increase the nutrient levels. The modified CB is administered to the individual, and a reassessment is conducted again. In some embodiments, the personalized dosage of the nutritional supplement in the CB is modified as above after the at least one, two, three, four, five, six, seven, eight, nine, ten, or more repeats.

clinical = conditions: female, human, in vivo
Excerpt: as §6, §7, §8, §9, §10

[7] = human, in vivo
Excerpt: as §2, §3, §4, §5

[8] = in vivo
Excerpt: as §6, §7, §8, §9, §10

[9] = person three, serum, after customized blend
[10] = person three, serum, before customized blend

Compound: [Ca] [Calcium]
- VAF ([1]; person one): 0.8
- VAF ([1]; person two): 0.5
- Post-test biomarker level ([2]; person one, serum, after ATB): 7.3 mg/dL
- Follow-up Biomarker level ([2]; person one, serum, after customized blend): 10.4 mg/dL
- Pre-test biomarker level ([2]; person one, serum, before ATB): 6.5 mg/dL
- Post-test biomarker level ([2]; person two, serum, after ATB): 5.9 mg/dL
- Follow-up Biomarker level ([2]; person two, serum, after customized blend): 10.42 mg/dL
- Pre-test biomarker level ([2]; person two, serum, before ATB): 5.4 mg/dL
- Follow-up Nutrient Level [3]: 6.2 mg/dL
- Actual Nutrient Value (ANV) [3]: 3.1 mg/dL
- Follow-up Nutrient Level [4]: 4.2 ng/MM WBC
- Actual Nutrient Value (ANV) [4]: 4.2 ng/MM WBC
- UTL ([5]; Table 18, person one): 2,500 mg/day
- UTL ([5]; Table 19, person two): 2,500 mg/day
- UTL ([5]; upper tolerable limit): 2,500 mg/day

Compound: [Fe] [Iron]
- Follow-up Nutrient Level ([2]; person three, cells, after customized blend): 1.141e+06 ng/mL
- Actual Nutrient Value (ANV) ([2]; person three, cells, before customized blend): 620000 ng/mL
- Follow-up Nutrient Level [2, 9]: 1410 ng/mL
- Actual Nutrient Value (ANV) [2, 10]: 220 ng/mL
- Follow-up Nutrient Level [3]: 0.019 mg/dL
- Actual Nutrient Value (ANV) [3]: 0.014 mg/dL
- Follow-up Nutrient Level [4]: 76.5 mg/dL
- Actual Nutrient Value (ANV) [4]: 76.5 mg/dL
- UTL ([5]; Table 20, person three): 45 mg/day

Compound: NC(=O)CC[C@H](N)C(=O)O [L-glutamine, L-Glutamine]
- change of nutrient level at follow-up testing [6]: marginal increase
- nutrient zone at follow-up testing [6]: Zone 2
- concentration at 3 months (clinical): 371 µM
- VAF ([1]; person one): 3.34
- Follow-up Biomarker level ([2]; male, human, in vivo): 697 nmol/mL
- Post-test biomarker level ([2]; male, human, in vivo): 312 nmol/mL
- Pre-test biomarker level ([2]; person one, serum, before ATB): 295.3 nmol/mL
- Follow-up Nutrient Level [2, 9]: 677 nmol/mL
- Actual Nutrient Value (ANV) [2, 10]: 290 nmol/mL
- Actual Nutrient Value (ANV) [3]: 302 nmol/mL
- UTL ([5]; Table 18, person one): 14000 mg/day
- UTL ([5]; Table 20, person three): 14000 mg/day
- UTL ([5]; upper tolerable limit): 14000 mg/day

Compound: CCCCC/C=C\C/C=C\CCCCCCCC(=O)O [LA, linoleic acid]
- nutrient levels reaching their TNZ at follow-up testing ([6]; Example 4: person three bodybuilder, named nutrients are the exceptions that did not reach the TNZ): supposed to reach the higher Zone 5

Compound: [Se] [Selenium]
- VAF ([7]; female): 2.267
- VAF ([7]; male): 3.6
- Follow-up Biomarker level ([2]; female, human, in vivo): 0.0267 mg/dL
- Post-test biomarker level ([2]; female, human, in vivo): 0.0122 mg/dL
- Pre-test biomarker level ([2]; female, human, in vivo): 0.0105 mg/dL
- Actual Nutrient Value (ANV) ([2]; male, human, in vivo): 190 ng/mL
- Follow-up Biomarker level ([2]; male, human, in vivo): 0.0259 mg/dL
- Follow-up Nutrient Level ([2]; male, human, in vivo): 267 ng/mL
- Post-test biomarker level ([2]; male, human, in vivo): 0.0167 mg/dL
- Pre-test biomarker level ([2]; male, human, in vivo): 0.014 mg/dL

Compound: Cc1ncc(COP(=O)(O)O)c(C=O)c1O [vitamin B6, Pyridoxal 5-Phosphate]
- change of nutrient level at follow-up testing [6]: moderately increased
- nutrient zone at follow-up testing [6]: Zone 2
- Actual Nutrient Value (ANV) [8]: 0.5 ng/mL
- Follow-up Nutrient Level [8]: 0.9 ng/mL
- Actual Nutrient Value (ANV) ([2]; in vivo): 130 ng/mL
- Follow-up Nutrient Level ([2]; in vivo): 401 ng/mL
